{"source": "patent US9770349B2", "about": "“Nanoporous stents with enhanced cellular adhesion and reduced neointimal formation” (University of Virginia Patent Foundation, priority 2002, dated 2017)", "assay": "Rapamycin solubility in solvent", "format": "physicochemical", "details": "100% ethanol, organic solvent or mixture, in ethanol (100% ethanol)"}
{"smiles": "CO[C@H]1C[C@@H]2CC[C@@H](C)[C@@](O)(O2)C(=O)C(=O)N2CCCC[C@H]2C(=O)O[C@H]([C@H](C)C[C@@H]2CC[C@@H](O)[C@H](OC)C2)CC(=O)[C@H](C)/C=C(\\C)[C@@H](O)[C@@H](OC)C(=O)[C@H](C)C[C@H](C)/C=C/C=C/C=C/1C", "note": "[rapamycin]", "values": [{"measurement": "solubility", "value": "~90", "unit": "mg/mL"}]}
